The values that follow come from patent publication US5817766A, “Reagents for a cannabinoid immunoassay” (Roche Diagnostic Systems, Inc., priority 1995, dated 1998).

One assay has as its system MoAb 11E.2. Description: MIRA assay ABUSCREEN 100 TEST ONLINE KIT for cannabinoids, MoAb 11E.2. The format is binding, Murine. The note with it: commercial MIRA assay; (II) = 100 by definition; IgA from immunization with (VIII) alone. The source says: (§1) Table 2 below illustrates how a novel clone (11A6) derived by using the triple sequential immunization procedure described herein performs in an actual commercial MIRA (Roche Diagnostic Systems, Inc., Branchburg, N.J.) assay ABUSCREEN® 100 TEST ONLINE™ KIT (Roche Diagnostic Systems, Inc., Branchburg, N.J. immunoassay) for cannabinoids. Example 20 describes the reagents contained in Roche's commercial Abuscreen® 100 Test Online™ Kit, except that the antibody has been replaced by a novel antibody according to this invention. […] Both tables also report the corresponding results using the monoclonal antibody (11E.2) derived from immunization with a single immunogen (immunogen (VIII)).
(§2) In Table 2, MoAb 11E.2 is an IgA (dimeric) antibody, while MoAB 11A6 is an IgG (monomeric) antibody. In order to agglutinate the microparticles included in the current commercial MIRA assay when 11A6 is used, inclusion of an anti-IgG antibody (commercially available, e.g., from Biodesign Int., Kennebunk, Me. 04043, USA) was required.
(§3) This example describes the reagents contained in Roche's ABUSCREEN® 100 TEST ONLINE™ KIT (Roche Diagnostic Systems, Inc., Branchburg, N.J. immunoassay) for cannabinoids.
(§4) 1. Antibody Reagent: A cannabinoid monoclonal antibody (IgG) with a secondary antibody adjusted in concentration to give the best dynamic standard curve with desired performance characteristics around the assay cutoff. This antibody is diluted in an antibody diluent containing: 50 mM HEPES, 0.1% BSA, 0.5% sodium chloride, 0.09% sodium azide and adjusted to a pH of 6.5.
(§5) 2. Microparticle Reagent: Conjugated cannabinoids derivative microparticle in a buffer containing 10 mM kPi pH 7.5 and 0.09% sodium Azide (supplied in kit).
(§6) 3. Sample Diluent: Buffer containing 50 mM PIPES pH 7.0, 2.5% PVP, 2.0% Sodium Chloride and 0.09% sodium azide (supplied in kit).
(§7) An assay using the above reagents is performed pursuant to the directions stated in the package insert for the commercially available Roche Abuscreen® Online™ 100 test kit for cannabinoids.

The test system of another assay is MoAb 11A6. Briefly: MIRA assay ABUSCREEN 100 TEST ONLINE KIT for cannabinoids, MoAb 11A6 with anti-IgG. It counts as binding, Murine. The note with it: commercial MIRA assay; (II) = 100 by definition; IgG from triple sequential immunization.
Source text: as §1, §2, §3, §4, §5, §6, §7

A value given as a limit tells only on which side of the number the result lay.

Take `CCCCCc1cc(O)c2c(c1)OC(C)(C)c1ccc(CO)cc1-2` [11-Hydroxycannabinol]: the “CROSS REACTIVITY (%) MoAb 11E.2” value with MoAb 11E.2 is reported as 16%. Besides, the “CROSS REACTIVITY (%) MoAb 11A6 with anti-IgG” value (shortened to “CROSS REACTIVITY (%) MoAb 11A6”) with MoAb 11A6 was 35%.
`CCCCCc1cc(O)c2c(c1)OC(C)(C)c1ccc(C)cc1-2` [Cannabinol]: the “CROSS REACTIVITY (%) MoAb 11E.2” value in the assay on MoAb 11E.2 is on record as 0.6%. In addition, in the assay with MoAb 11A6, the “CROSS REACTIVITY (%) MoAb 11A6” value was 1.6%.
The like results for `C=C(C)[C@@H]1CCC(C)=C[C@H]1c1c(O)cc(CCCCC)cc1O` [Cannabidiol] were, in that order, less than 0.1% and less than 0.1%.
The corresponding values for `CCCCCc1cc(O)c2c(c1)OC(C)(C)[C@@H]1CCC(CO)=C[C@@H]21` [(-)-11-Hydroxy-Δ^9 -THC (V), (-)-11-Hydroxy-Δ^9 -THC] are 23% and 32%.
In the case of `CCCCCc1cc(O)c2c(c1)OC(C)(C)[C@@H]1C[C@@H](O)C(CO)=C[C@@H]21` [(-)-8β,11-Dihydroxy-Δ^9 -THC (VII), (-)-8β,11-Dihydroxy-Δ^9 -THC], the “CROSS REACTIVITY (%) MoAb 11E.2” value in the assay with MoAb 11E.2 is on record as 14%. In addition, in the assay with MoAb 11A6, the “CROSS REACTIVITY (%) MoAb 11A6” value was found to be 36%.
The like results for `CCCCCc1cc(O)c2c(c1)OC(C)(C)[C@@H]1CCC(C)=C[C@@H]21` [(-)-Δ^9 -THC, Δ^9 -tetrahydrocannabinol] were, in that order, 7.6% and 7.3%.
The like results for `CCCCCc1cc(O)c2c(c1)OC(C)(C)[C@@H]1C[C@H](O)C(C)=C[C@@H]21` [(-)-8α-Hydroxy-Δ^9 -THC (VI), (-)-8α-Hydroxy-Δ^9 -THC] were, in that order, 60% and 71%.
The like results for `CCCCCc1cc(O)c2c(c1)OC(C)(C)[C@@H]1CCC(C(=O)O)=C[C@@H]21` [(-)-Δ^9-11-nor-9-COOH-THC (II), Δ^9-11-nor-9-carboxy-THC] were, in that order, 100% and 100%.
